Measurements published in paper PMC6585933 (Clinical Pharmacology in Drug Development, 2018).
Values joined by “and” are separate entries in the source; they are usually repeats but may differ in a detail not shown here. Identical values can stand only once. Like-named read-outs stand apart in the source and are kept apart here.

What was measured:
[1] = type: in vivo, human; settings: for AUC: AUC0–tn; for AUC(0-inf): AUC0–∞
[2] = system: human multidrug resistance transporter P‐glycoprotein (P‐gp); settings: ^14C‐amenamevir, cells expressing P‐gp; ref unpublished data held by Maruho; cited from earlier work
OAT3 = settings: ^14C‐amenamevir, ref unpublished data held by Maruho; cited from earlier work
[3] = ^14C‐amenamevir in humans; ref unpublished data held by Maruho; cited from earlier work
CYP3A4 = settings: human hepatocytes, 1 to 100 μM; ref unpublished data held by Maruho; cited from earlier work
[4] = amenamevir plus ketoconazole vs amenamevir alone; cited from earlier work
[5] = system: cytochrome P450 (CYP) 3A4/5; settings: human liver microsomes; ref unpublished data held by Maruho; cited from earlier work
[6] = single oral dose of 200 mg ^14C‐amenamevir; ref unpublished data held by Maruho; cited from earlier work
[7] = system: acyclovir‐resistant VZV strains; settings: in vitro; cited from earlier work
OATP1B3 = settings: ^14C‐amenamevir, ref unpublished data held by Maruho; cited from earlier work
[8] = type: in vivo, human; settings: for CL/F, arithmetic mean / Tmax: plasma; for CL/F, arithmetic mean: n = 24; for Tmax: male, human, po
OATP1B1 = settings: ^14C‐amenamevir, ref unpublished data held by Maruho; cited from earlier work
CYP3A4/5 = settings: read-out: half maximal inhibitory concentration, very weak or no inhibitory activity, ref unpublished data held by Maruho; cited from earlier work
[9] = type: in vivo, human; settings: for CL/F, arithmetic mean: N = 24; for AUC0‐∞, ratio amenamevir with ritonavir vs amenamevir alone / Cmax, ratio amenamevir with ritonavir vs amenamevir alone: ritonavir 600 mg; for AUC: AUC0‐∞; for AUC / Cmax: LS mean, n = 24; for Tmax: po
[10] = system: organic cation uptake transporter‐2; settings: ^14C‐amenamevir, organic cation uptake transporter‐2–expressing cells; ref unpublished data held by Maruho; cited from earlier work
OAT1 = settings: ^14C‐amenamevir, ref unpublished data held by Maruho; cited from earlier work
[11] = cited from earlier work
[12] = saquinavir with a single concomitant dose of 600‐mg ritonavir; cited from earlier work
[13] = amenamevir 400 mg with ritonavir 600 mg
[14] = amenamevir 1200 mg with ritonavir 600 mg
[15] = amenamevir 400‐mg or 1200‐mg with single 600‐mg dose of ritonavir
[16] = male, human, plasma, 1200 mg, amenamevir 1200 mg alone
[17] = male, human, plasma, amenamevir 400 mg with ritonavir 600 mg
[18] = male, human, plasma, amenamevir 1200 mg with ritonavir 600 mg
[19] = Day 12 midazolam 7.5 mg with amenamevir 400 mg vs Day 1 midazolam alone
[20] = Day 19, midazolam 7.5 mg alone, 7 days after last amenamevir dose, n = 18
[21] = after amenamevir 400 mg once daily for 10 days
[22] = male, human, plasma, oral, arithmetic mean, Day 12, midazolam 7.5 mg with amenamevir 400 mg (last of 10 daily doses), n = 18
[23] = male, human, plasma, oral, geometric mean, Day 12, midazolam 7.5 mg with amenamevir 400 mg (last of 10 daily doses), n = 18
[24] = male, human, plasma, oral, LS mean, Day 12, midazolam 7.5 mg with amenamevir 400 mg (last of 10 daily doses), n = 18
[25] = midazolam with rifampicin as inducer

OCc1ncc2n1-c1ccc(Cl)cc1C(c1ccccc1F)=NC2 [1‐hydroxymidazolam]
plasma concentrations, influence of coadministration of amenamevir ([1]; metabolite after midazolam 7.5 mg with amenamevir 400 mg): not influenced

Cc1cccc(C)c1N(CC(=O)Nc1ccc(-c2ncon2)cc1)C(=O)C1CCS(=O)(=O)CC1 [amenamevir]
substrate of the human multidrug resistance P‐gp transporter [2]: is a substrate
uptake into transporter‐expressing cells (OAT3): no uptake
plasma protein binding [3]: about 75%
induction of CYP3A4 (CYP3A4): showed the potential to induce CYP3A4
geometric mean ratio for AUCinf (90%CI) [4]: 2.58 (90%CI, 2.32‐2.87)
geometric mean ratio for Cmax (90%CI) [4]: 1.30 (90%CI, 1.17‐1.45)
role of CYP3A4/5 in the metabolism of amenamevir [5]: main isozymes
^14C radioactivity recovered in feces [6]: 74.6%
activity against acyclovir‐resistant VZV strains [7]: good activity
uptake into transporter‐expressing cells (OATP1B3): no uptake
CL/F, arithmetic mean ([8]; amenamevir 400 mg single oral dose alone (control)): 17.7 L/h
CL/F, arithmetic mean ([8]; amenamevir 1200 mg single oral dose alone (control)): 25.7 L/h
geometric mean (90%CI) AUC0‐∞ as % of that after amenamevir alone ([8]; amenamevir 1200 mg with cyclosporine 100 mg twice daily): ~79(73, 85) % and ~79%
Tmax ([8]; 400 mg): 3 h
Tmax ([8]; 1200 mg): 3 h
uptake into transporter‐expressing cells (OATP1B1): no uptake
IC50 (CYP3A4/5): > 100 µM
CL/F, arithmetic mean ([9]; amenamevir 400 mg single oral dose alone, plasma): 18.3 L/h
geometric mean AUC0‐∞, times higher than after amenamevir alone [9, 13]: about 2.6 times higher
geometric mean Cmax, times higher than after amenamevir alone [9, 13]: about 1.4 times higher
CL/F, arithmetic mean ([9]; amenamevir 400 mg with single dose ritonavir 600 mg): 6.8 L/h
AUC0‐∞, ratio amenamevir with ritonavir vs amenamevir alone ([9]; amenamevir 400 mg): 260%
Cmax, ratio amenamevir with ritonavir vs amenamevir alone ([9]; amenamevir 400 mg): 136%
CL/F, arithmetic mean ([9]; amenamevir 1200 mg single oral dose alone, plasma): 25.7 L/h
geometric mean AUC0‐∞, times higher than after amenamevir alone [9, 14]: ~3.3 times higher
geometric mean Cmax, times higher than after amenamevir alone [9, 14]: ~1.6 times higher
CL/F, arithmetic mean ([9]; amenamevir 1200 mg with single dose ritonavir 600 mg): 7.6 L/h
AUC0‐∞, ratio amenamevir with ritonavir vs amenamevir alone ([9]; amenamevir 1200 mg): 334%
Cmax, ratio amenamevir with ritonavir vs amenamevir alone ([9]; amenamevir 1200 mg): 163%
increase in AUC [9, 15]: > 3 fold
increase in Cmax [9, 15]: about 1.5 fold
AUC ([9]; male, human, plasma, 400 mg, amenamevir 400 mg alone): 23200 ng·h/mL
AUC [9, 16]: 48500 ng·h/mL
Cmax [9, 16]: 3800 ng/mL
AUC [9, 17]: 60200 ng·h/mL
AUC [9, 18]: 162000 ng·h/mL
Cmax [9, 17]: 2520 ng/mL
Cmax [9, 18]: 6210 ng/mL
half-life ([9]; male, human, plasma, geometric mean elimination half‐life, amenamevir alone, irrespective of the dose (400 mg and 1200 mg)): ~7 h
Cmax ([9]; male, human, plasma, oral, 400 mg, amenamevir 400 mg alone): 1850 ng/mL
Tmax ([9]; male, human, plasma, 400 mg): 3 h
Tmax ([9]; male, human, plasma, 1200 mg): 3 h
treatment‐emergent adverse event headache, frequency ([9]; with 400‐mg amenamevir (ritonavir study group)): 16.7%
treatment‐emergent adverse event headache, frequency ([9]; with 1200‐mg amenamevir (ritonavir study group)): 29.2%
uptake into transporter‐expressing cells [10]: no uptake
uptake into transporter‐expressing cells (OAT1): no uptake

Cc1ncc2n1-c1ccc(Cl)cc1C(c1ccccc1F)=NC2 [midazolam]
reduction in plasma concentrations of midazolam ([1]; CYP3A‐inducing effect of amenamevir): 52%
CL/F, arithmetic mean ([1]; Day 1, midazolam 7.5 mg oral alone (control), plasma, n = 18): 68.5 L/h
CL/F, arithmetic mean ([1]; Day 12, midazolam 7.5 mg with amenamevir 400 mg (last of 10 daily doses), n = 18): 134.3 L/h
AUC0–∞, LS mean ratio vs control (90%CI) [1, 19]: ~51%
Cmax, LS mean ratio vs control (90%CI) [1, 19]: about 68%
CL/F, arithmetic mean [1, 20]: 63 L/h
Tmax, median [1, 20]: 0.5 h
AUC0–∞, LS mean ratio vs control ([1]; Day 19 midazolam alone vs Day 1 midazolam alone): 110%
CL/F, arithmetic mean ([1]; Day 26, midazolam 7.5 mg alone, 14 days after last amenamevir dose, n = 18): 65.2 L/h
AUC0–∞, LS mean ratio vs control ([1]; Day 26 midazolam alone vs Day 1 midazolam alone): 108%
reduction of Cmax of midazolam [1, 21]: about 32%
reduction of average concentrations (AUC) of midazolam [1, 21]: about 51%
AUC [1, 22]: 59 ng·h/mL
AUC [1, 23]: 56.7 ng·h/mL
AUC(0-inf) [1, 24]: 58 ng·h/mL
AUC(0-inf) [1, 22]: 60.3 ng·h/mL
AUC(0-inf) [1, 23]: 58 ng·h/mL
Cmax [1, 24]: 23 ng/mL
Cmax [1, 22]: 24.5 ng/mL
Cmax [1, 23]: 23.4 ng/mL
half-life ([1]; male, human, plasma, oral, t1/2, arithmetic mean, Day 12, midazolam 7.5 mg with amenamevir 400 mg (last of 10 daily doses), n = 18): 3.7 h
Tmax ([1]; male, human, plasma, po, 7.5 mg): 0.5 h
mean elimination half‐life ([11]; midazolam before rifampicin): 3.2 h
reduction of AUC [11, 25]: 64 fold
reduction of Cmax [11, 25]: 27 fold

CC(C)c1nc(CN(C)C(=O)N[C@H](C(=O)N[C@@H](Cc2ccccc2)C[C@H](O)[C@H](Cc2ccccc2)NC(=O)OCc2cncs2)C(C)C)cs1 [ritonavir, reference compound]
t1/2, geometric mean ([9]; ritonavir 600 mg single dose with amenamevir 400 mg, n 24): 4.5 h

CC(C)(C)NC(=O)[C@@H]1C[C@@H]2CCCC[C@@H]2CN1C[C@@H](O)[C@H](Cc1ccccc1)NC(=O)[C@H](CC(N)=O)NC(=O)c1ccc2ccccc2n1 [saquinavir]
increase of plasma concentrations [12]: > 50 fold
